Assay results reported in PubChem BioAssay (NCI).
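Here, GI50 denotes the concentration required for 50% inhibition of growth. TGI: total growth inhibition.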

Tests used:
Assay in all cases: inhibition of tumour cell growth, NCI panel, 384-well format
A498 renal = test system: A498 renal
EKVX NSCLC = test system: EKVX NSCLC
HCT-116 colon = test system: HCT-116 colon
HL-60(TB) leukemia = test system: HL-60(TB) leukemia
HOP-62 NSCLC = test system: HOP-62 NSCLC
HS 578T breast = test system: HS 578T breast
IGROV1 ovarian = test system: IGROV1 ovarian
K-562 leukemia = test system: K-562 leukemia
M14 melanoma = test system: M14 melanoma
MDA-MB-435 melanoma = test system: MDA-MB-435 melanoma
SF-295 CNS = test system: SF-295 CNS
SK-MEL-2 melanoma = test system: SK-MEL-2 melanoma
TK-10 renal = test system: TK-10 renal

CC(O)[C@H](NC(=O)N[C@@H](CC(N)=O)c1nc(N2CCNCC2)no1)C(=O)O (stereo partly specified) was tested, and the GI50 (A498 renal) was > 100 µM, the TGI (A498 renal) was > 100 µM and the GI50 (EKVX NSCLC) was > 100 µM. The TGI (EKVX NSCLC) was > 100 µM, the GI50 (HCT-116 colon) was > 100 µM and the TGI (HCT-116 colon) was > 100 µM. For the same compound, the GI50 (HL-60(TB) leukemia) was > 100 µM, the TGI (HL-60(TB) leukemia) was > 100 µM and the GI50 (HOP-62 NSCLC) was > 100 µM. The TGI (HOP-62 NSCLC) was > 100 µM, the GI50 (HS 578T breast) was > 100 µM and the TGI (HS 578T breast) was > 100 µM. For the same compound, the GI50 (IGROV1 ovarian) was > 100 µM, the TGI (IGROV1 ovarian) was > 100 µM and the GI50 (K-562 leukemia) was > 100 µM. For the same compound, the TGI (K-562 leukemia) was > 100 µM, the GI50 (M14 melanoma) was > 100 µM and the TGI (M14 melanoma) was > 100 µM. The GI50 (MDA-MB-435 melanoma) was > 100 µM, the TGI (MDA-MB-435 melanoma) was > 100 µM and the GI50 (SF-295 CNS) was > 100 µM. For the same compound, the TGI (SF-295 CNS) was > 100 µM, the GI50 (SK-MEL-2 melanoma) was > 100 µM and the TGI (SK-MEL-2 melanoma) was > 100 µM. For the same compound, the GI50 (TK-10 renal) was > 100 µM and the TGI (TK-10 renal) was > 100 µM.
